Experimental data as given in article PMC10709440, “High-throughput ligand profile characterization in novel cell lines expressing seven heterologous insect olfactory receptors for the detection of volatile plant biomarkers” (Scientific Reports, 2023).
Where two headings read alike, the source gives them in different places.

Tests used:
OR71a = tested on: OR71a; parameters: method as in earlier work; conditions: DoOR database value, ref DoOR, cited from earlier work
OR98a = tested on: OR98a; parameters: method as in earlier work; conditions: DoOR database value, ref DoOR, cited from earlier work
OR49b = tested on: OR49b; parameters: method as in earlier work; conditions: DoOR database value, ref DoOR, cited from earlier work
OR13a = tested on: OR13a; parameters: method as in earlier work; conditions: DoOR database value, ref DoOR, cited from earlier work
OR47a = tested on: OR47a; parameters: method as in earlier work; conditions: DoOR database value, ref DoOR, cited from earlier work
OR10a = tested on: OR10a; parameters: method as in earlier work; conditions: DoOR database value, ref DoOR, cited from earlier work
Drosophila OR85b = molecular target: T1, Drosophila OR85b (Drosophila melanogaster, UniProt Q9VHQ7); experiment: Calcium ion fluorescence (GCaMP6) assay, OR85b stable HEK293 cell line; type: cell-based; conditions: for activation at 1 µM / activation at 10 µM / activation at 100 µM: HEK293, read-out: OR85b response (VUAA1-normalized response); for Average response: VUAA1-normalized response, mean of biological replicates
T1 construct: expressed in transfected cells
T1 sequence (Q9VHQ7 1-390): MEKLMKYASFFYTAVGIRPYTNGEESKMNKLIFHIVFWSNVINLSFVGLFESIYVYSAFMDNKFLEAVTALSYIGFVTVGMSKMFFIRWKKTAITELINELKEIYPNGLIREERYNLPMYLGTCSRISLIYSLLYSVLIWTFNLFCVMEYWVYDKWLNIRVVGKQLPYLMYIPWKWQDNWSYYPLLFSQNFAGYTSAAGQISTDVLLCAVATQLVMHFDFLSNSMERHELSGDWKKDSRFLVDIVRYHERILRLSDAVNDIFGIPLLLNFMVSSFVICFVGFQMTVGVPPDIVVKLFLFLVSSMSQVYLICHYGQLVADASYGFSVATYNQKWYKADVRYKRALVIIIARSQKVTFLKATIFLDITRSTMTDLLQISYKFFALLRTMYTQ
T1 sequence (Q9VNB5 1-486 partner): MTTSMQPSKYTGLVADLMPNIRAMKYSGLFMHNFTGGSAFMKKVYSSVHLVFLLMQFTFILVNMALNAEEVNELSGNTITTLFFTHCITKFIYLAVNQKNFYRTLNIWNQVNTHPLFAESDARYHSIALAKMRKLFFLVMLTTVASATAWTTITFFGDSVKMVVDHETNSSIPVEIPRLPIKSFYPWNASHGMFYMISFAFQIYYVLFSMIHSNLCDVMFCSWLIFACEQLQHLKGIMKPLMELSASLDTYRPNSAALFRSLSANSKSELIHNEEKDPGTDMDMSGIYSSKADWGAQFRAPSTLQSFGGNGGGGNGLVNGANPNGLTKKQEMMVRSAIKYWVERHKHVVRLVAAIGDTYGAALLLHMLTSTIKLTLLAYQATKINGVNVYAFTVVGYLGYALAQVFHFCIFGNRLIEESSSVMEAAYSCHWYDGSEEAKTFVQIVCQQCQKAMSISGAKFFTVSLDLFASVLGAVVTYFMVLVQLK
In short: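 Responses are VUAA1-normalized ΔF: each VOC-evoked calcium signal, (FMAX−F0)/F0 over 30 s after injection, divided by the same line's mean 50 µM VUAA1 response. Cells were doxycycline-induced HEK293 with GCaMP6 and the cognate Drosophila OR, in HEPES buffer pH 7.3; ligands tested 0.01–100 μM.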

OR85b = tested on: OR85b; parameters: method as in earlier work; conditions: DoOR database value, ref DoOR, cited from earlier work
[1] = ligand concentration 1 (unit not given), threshold 0.05, below shown as 0
[2] = ligand concentration 10 (unit not given), threshold 0.05, below shown as 0
[3] = ligand concentration 100 (unit not given), threshold 0.05, below shown as 0
[4] = concentration 1, normalized fluorescence change, values below 0.05 threshold given as 0
[5] = concentration 10, normalized fluorescence change, values below 0.05 threshold given as 0
[6] = concentration 100, normalized fluorescence change, values below 0.05 threshold given as 0

For `O=Cc1ccccc1` [benzaldehyde], the “OR71a DoOR response” value (OR71a) is listed as 0.025, the “OR98a DoOR response” value (OR98a) is listed as 0.13 and the “OR49b DoOR response” value (OR49b) is listed as 0.09. The “OR13a DoOR response” value (OR13a) was 0.025, the “OR47a DoOR response” value (OR47a) was 0.06 and the “OR10a DoOR response” value (OR10a) was 0.22. For the same molecule, the activation at 1 µM (Drosophila OR85b) was 6%, the activation at 10 µM (Drosophila OR85b) was 0% and the activation at 100 µM (Drosophila OR85b) was 0%. The Average response (Drosophila OR85b; OR85b cell line, cc. 1 µM) was 0.06, the Average response (Drosophila OR85b; OR85b cell line, cc. 10 µM) was 0.00 and the Average response (Drosophila OR85b; OR85b cell line, cc. 100 µM) was 0.00. The “DF norm AVERAGE OR85b” value (Drosophila OR85b; [1]) was 0.06124, the “DF norm AVERAGE OR85b” value (Drosophila OR85b; [2]) was 0 and the “DF norm AVERAGE OR85b” value (Drosophila OR85b; [3]) was 0. The “OR85b DoOR response” value (OR85b) was 0.07.

For `CCCCCC(O)CC` (centres unmarked) [3-octanol], the “OR71a DoOR response” value (OR71a) is given as 0.01, the “OR98a DoOR response” value (OR98a) is given as 0.59 and the “OR49b DoOR response” value (OR49b) is given as 0.03. The “OR13a DoOR response” value (OR13a) was 0.58, the “OR47a DoOR response” value (OR47a) was 0.47 and the “OR10a DoOR response” value (OR10a) was 0.12. For the same molecule, the activation at 1 µM (Drosophila OR85b) was 0%, the activation at 10 µM (Drosophila OR85b) was 0% and the activation at 100 µM (Drosophila OR85b) was 0%. It also gave an Average response (Drosophila OR85b; OR85b cell line, cc. 1 µM) of 0.00, an Average response (Drosophila OR85b; OR85b cell line, cc. 10 µM) of 0.00 and an Average response (Drosophila OR85b; OR85b cell line, cc. 100 µM) of 0.0171. For the same molecule, the “DF norm AVERAGE OR85b” value (Drosophila OR85b; [4]) was 0, the “DF norm AVERAGE OR85b” value (Drosophila OR85b; [5]) was 0 and the “DF norm AVERAGE OR85b” value (Drosophila OR85b; [6]) was 0. The “OR85b DoOR response” value (OR85b) was 0.68.

In the case of `C=CC(O)CCCCC` (centres unmarked) [1-octen-3-ol], the “OR71a DoOR response” value (OR71a) is given as 0.09, the “OR98a DoOR response” value (OR98a) is given as 0.58 and the “OR49b DoOR response” value (OR49b) is given as 0.016. For the same molecule, the “OR13a DoOR response” value (OR13a) was 0.78, the “OR47a DoOR response” value (OR47a) was 0.25 and the “OR10a DoOR response” value (OR10a) was 0.019. It also gave an activation at 1 µM (Drosophila OR85b) of 0%, an activation at 10 µM (Drosophila OR85b) of 0% and an activation at 100 µM (Drosophila OR85b) of 8%. It also gave an Average response (Drosophila OR85b; OR85b cell line, cc. 1 µM) of 0.00, an Average response (Drosophila OR85b; OR85b cell line, cc. 10 µM) of 0.0043 and an Average response (Drosophila OR85b; OR85b cell line, cc. 100 µM) of 0.08. The “DF norm AVERAGE OR85b” value (Drosophila OR85b; [4]) was 0, the “DF norm AVERAGE OR85b” value (Drosophila OR85b; [5]) was 0 and the “DF norm AVERAGE OR85b” value (Drosophila OR85b; [6]) was 0.08325. The “OR85b DoOR response” value (OR85b) was 0.53.

In the case of `CC1=CCC2CC1C2(C)C` (stereo not drawn) [alpha-pinene], the “OR71a DoOR response” value (OR71a) is given as 0.04, the “OR98a DoOR response” value (OR98a) is given as 0.43 and the “OR49b DoOR response” value (OR49b) is given as 0.018. For the same molecule, the “OR13a DoOR response” value (OR13a) was 0.10, the “OR47a DoOR response” value (OR47a) was 0.035 and the “OR10a DoOR response” value (OR10a) was 0.004. It also gave an activation at 1 µM (Drosophila OR85b) of 0%, an activation at 10 µM (Drosophila OR85b) of 0% and an activation at 100 µM (Drosophila OR85b) of 0%. The Average response (Drosophila OR85b; OR85b cell line, cc. 1 µM) was 0.03, the Average response (Drosophila OR85b; OR85b cell line, cc. 10 µM) was 0.00 and the Average response (Drosophila OR85b; OR85b cell line, cc. 100 µM) was 0.0358. The “DF norm AVERAGE OR85b” value (Drosophila OR85b; [1]) was 0, the “DF norm AVERAGE OR85b” value (Drosophila OR85b; [2]) was 0 and the “DF norm AVERAGE OR85b” value (Drosophila OR85b; [3]) was 0. For the same molecule, the “OR85b DoOR response” value (OR85b) was 0.15.

In the case of `OCCc1ccccc1` [phenethyl alcohol], the “OR71a DoOR response” value (OR71a; OR71a) is given as 0.17, the “OR98a DoOR response” value (OR98a; OR98a) is given as -0.01 and the “OR49b DoOR response” value (OR49b; OR49b) is given as 0.09. For the same molecule, the “OR13a DoOR response” value (OR13a; OR13a) was 0.12, the “OR47a DoOR response” value (OR47a; OR47a) was 0.009 and the “OR10a DoOR response” value (OR10a; OR10a) was 0.014. The “OR85b response (VUAA1-normalized) at 1 μM” value (Drosophila OR85b; OR85b cell line, VOC concentration 1 μM) was 0.10, the “OR85b response (VUAA1-normalized) at 10 μM” value (Drosophila OR85b; OR85b cell line, VOC concentration 10 μM) was 0.0758 and the “OR85b response (VUAA1-normalized) at 100 μM” value (Drosophila OR85b; OR85b cell line, VOC concentration 100 μM) was 0.00. For the same molecule, the Average response (Drosophila OR85b; OR85b cell line, cc. 1 µM) was 0.10, the Average response (Drosophila OR85b; OR85b cell line, cc. 10 µM) was 0.0758 and the Average response (Drosophila OR85b; OR85b cell line, cc. 100 µM) was 0.04. The “DF norm AVERAGE OR85b” value (Drosophila OR85b; [1]) was 0.09884, the “DF norm AVERAGE OR85b” value (Drosophila OR85b; [2]) was 0.07579 and the “DF norm AVERAGE OR85b” value (Drosophila OR85b; [3]) was 0. The “OR85b DoOR response” value (OR85b; OR85b) was 0.006.
